Source: article PMC12549899 (Nature Communications, 2025)
“And” between values parts separate entries of the source, which are not always exact repeats. Equal values may be shown once.

Biological target: T1, DrOTOP1 M573W (Danio rerio, UniProt Q7ZWK8, M573W)
T1 construct: A previously generated codon-optimized full-length DrOTOP1[8]; (UniProt: Q7ZWK8) construct; expressed in transfected cells; host or cells: HEK-293 (CRL-1573, ATCC)
T1 sequence (Q7ZWK8 1-586 M573W): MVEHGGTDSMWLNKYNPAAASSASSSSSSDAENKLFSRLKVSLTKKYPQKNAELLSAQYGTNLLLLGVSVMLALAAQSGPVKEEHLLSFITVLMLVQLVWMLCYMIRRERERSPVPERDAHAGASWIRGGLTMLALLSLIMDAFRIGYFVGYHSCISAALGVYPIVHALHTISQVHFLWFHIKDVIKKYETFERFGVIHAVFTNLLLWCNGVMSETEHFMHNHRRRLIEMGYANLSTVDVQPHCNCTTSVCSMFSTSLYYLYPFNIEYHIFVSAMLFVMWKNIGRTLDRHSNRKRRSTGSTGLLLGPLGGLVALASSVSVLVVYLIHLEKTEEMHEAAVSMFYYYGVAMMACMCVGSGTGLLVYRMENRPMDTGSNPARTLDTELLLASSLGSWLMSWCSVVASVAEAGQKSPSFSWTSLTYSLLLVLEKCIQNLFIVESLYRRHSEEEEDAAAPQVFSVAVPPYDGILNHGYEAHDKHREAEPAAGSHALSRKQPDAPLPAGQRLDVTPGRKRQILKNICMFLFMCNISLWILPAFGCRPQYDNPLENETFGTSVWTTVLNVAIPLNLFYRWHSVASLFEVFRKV
Test: Whole-cell patch-clamp, inhibition of acid-evoked currents, DrOTOP1 M573W (outer site)
Type: cell-based, zebrafish (Danio rerio)
Source text: To functionally test the significance of the two binding sites identified by cryo-EM, we generated point mutations of DrOTOP1 using the binding poses and conformational changes observed in DrOTOP1_C2.2 to guide our mutations. As per the binding pose that best fits our cryo-EM density, C2.2 forms the following interactions in the outer site: hydrophobic packing against many non-polar residues W126, G130, M133, L134, F271, F570, and M573, and π-stacking with W532 (Fig. 5A). In addition, C2.2 could potentially form H-bonds with E267, if the sidechain is protonated or a water bridge is present, and with H574 if it moves closer (Fig. 5A). Likewise, C2.36 presents a heterocyclic nitrogen that can potentially form a H-bond with E267, similarly, provided a protonation or water bridge is present (Fig. 5B). In addition, C2.36 forms a T-shaped π-stacking interaction with H574, whose sidechain has rotated 90 degrees (compared to DrOTOP1_apo), presumably to accommodate the interaction (Fig. 5B). Considering other inhibitors discovered from the second round of screening, many contain functional groups like the carbonyl groups of Group 1 molecules and the heterocyclic nitrogen atoms of Group 2 molecules (Supplementary Fig. 3E), that can potentially form similar H-bonds with E267 as C2.2 and C2.36, assuming the binding modes are similar. In the central site, C2.2 binds with the following interactions: hydrophobic packing with residues V201, F271, A274, V278, and A388, π-stacking with F277, and H-bonding with E384 (Fig. 5C).
Each non-aromatic residue was mutated to tryptophan, which was expected to cause steric occlusion. […] This seemed appropriate given the small number of H-bonds in these pockets, the ambiguity of how the inhibitors fit the density, and the prevalence of hydrophobic packing interactions (Fig. 5A–C).
HEK-293 cells (CRL-1573, ATCC) were cultured in DMEM (Thermofisher 11995073) containing 10% fetal bovine serum (Life Technology 16000044) and Penicillin-Streptomycin (100 I.U./mL) and (100 µg/mL), respectively. Cells were transfected with WT DrOTOP1 or mutant DrOTOP1 channels in 35 mm petri dishes, with ~ 500 ng DNA and 2 μL TransIT-LT1 transfection reagent (Mirus Bio Corporation, Cat # MIR2300) following the manufacturer’s protocol. All constructs were subcloned into a pcDNA3.1 vector that adds an N-terminal fusion tag consisting of an octahistidine tag followed by eGFP, a Gly-Thr-Gly-Thr linker and a 3C protease cleavage site ([…]) followed by WT DrOTOP1, WT mOTOP1, WT hOTOP1, or mutated DrOTOP1. Point mutations were generated via In-Fusion Cloning (Takara) using single-stranded DNA primers generated through IDT and sequence confirmed by Sanger sequencing (GeneWiz).
Whole-cell patch-clamp recording was performed as previously described[6],[22],[25]. Recordings were made with an Axopatch 200B amplifier, digitized with a Digidata 1322a 16-bit data acquisition system, acquired with pClamp 8.2 and analyzed with Clampfit 10 (Molecular Devices). Recordings were sampled at 5 kHz and filtered at 1 kHz. Patch Pipettes with resistance of […] were fabricated from borosilicate glass, and only recordings with a giga-Ohm seal were used in analysis. Membrane potential was held at −80 mV for the duration of recordings. At the beginning of recordings and between, cells were washed with Tyrode’s solution (see below). Once a giga-Ohm seal was reached, cells were lifted and placed in front of microcapillary tubes controlled by a Fast-Step perfusion system (Warner Instruments) so that extracellular solutions could be rapidly exchanged during each experiment.
Standard Tyrode’s solution consisted of 145 mM NaCl, 5 mM KCl, MgCl2, 2 mM CaCl2, 20 mM D-Glucose, and 10 mM HEPES (for pH 7.4). All other extracellular patch-clamp solutions contained 160 mM NMDG-Cl, 2 mM CaCl2, and the following buffers: 10 mM HEPES (for pH 7.4), 10 mM MES (for pH 6.5-5.5), 10 mM CHES for pH 10, and 10 mM HomoPIPES for (pH 5.0). pH adjusted with HCl. […]

SMILES | Hill coefficient | inhibition at 3 µM (3 µM, single cells) [%] | inhibition at 30 µM (30 µM, single cells) [%] | inhibition at 100 µM (100 µM, single cells) [%] | inhibition at 300 µM (300 µM, single cells) [%] | IC50 (pH 5.5) [µM] | Inhibition of currents (100 µM, single cells)
C=C(C)COc1ccccc1NC(=O)c1nc[nH]c1C [C2.2] | 1.238 | 4.02 | 46.6 | 84.3 | 91.4 | 30.4 | 
O=C(/C(=N\O)c1ccccc1)c1ccccc1 [C11, benzil monoxime] |  |  |  | 51.6 |  |  | 53.3175% and 66.3617% and 67.3077% and 51.54%
